Reference: ChEMBL document CHEMBL1144510, “Synthesis of beta-ketophosphonate analogs of glutamyl and glutaminyl adenylate, and selective inhibition of the corresponding bacterial aminoacyl-tRNA synthetases” (Bioorg Med Chem, 2007)

Assays:
[1] = Ratio of Ki for calf liver GluRS to Ki for Escherichia coli GluRS
[2] = Inhibition of Escherichia coli GluRS
[3] = Inhibition of cytoplasmic calf liver GluRS; set-up: species or system Bos taurus
[4] = Inhibition of Escherichia coli GlnRS

Ratio Ki [1]	Ki [3] [µM]	Structure (SMILES)	Ki [2] [µM]	Ki [4] [µM]
25	0.07	Nc1ncnc2c1ncn2[C@@H]1OC(COS(=O)(=O)NC(=O)[C@@H](N)CCC(=O)O)[C@@H](O)[C@H]1O (some centres undefined)	0.0028	–
145	2600	Nc1ncnc2c1ncn2[C@@H]1O[C@H](COP(=O)(O)CC(=O)[C@@H](N)CCC(=O)O)[C@@H](O)[C@H]1O	18	2800
–	–	NC(=O)CC[C@H](N)C(=O)CP(=O)(O)OC[C@H]1O[C@@H](n2cnc3c(N)ncnc32)[C@H](O)[C@@H]1O	2900	650
